Measured values as given in article PMC6268941, “The Binding Affinity and Molecular Basis of the Structure-Binding Relationship between Urinary Tamm-Horsfall Glycoprotein and Tumor Necrosis Factor-α” (Molecules, 2012).

What follows are molecules tested against T1, THP-TNF-α (Tamm-Horsfall glycoprotein / tumor necrosis factor-α binding pair) (Homo sapiens, UniProt P01375+P07911) (assay: ELISA, monosaccharide inhibition of THP-TNF-α binding). Conditions: 10 µg sugar preincubated overnight at 4 °C with coated TNF-α or coated THP, then the other protein added; which partner holds the sugar is not resolved.
T1 construct: recombinant human TNF-α (R&D Systems, 17 kDa); native THP purified from normal human urine (80-90 kDa)
T1 sequence (P01375 77-233, other chains not shown): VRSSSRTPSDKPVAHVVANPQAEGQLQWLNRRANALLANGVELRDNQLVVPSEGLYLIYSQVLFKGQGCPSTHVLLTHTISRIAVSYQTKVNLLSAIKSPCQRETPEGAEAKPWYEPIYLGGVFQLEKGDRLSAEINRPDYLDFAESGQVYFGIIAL

Row | SMILES | ELISA, monosaccharide inhibition of THP-TNF-α binding
1 | CC(=O)N[C@H]1C(O)O[C@H](CO)[C@H](O)[C@@H]1O (stereo partly drawn) [N-acetyl-galactosamine] | mannose, GlcNAc, and GalNAc significantly suppressed THP-TNF-α binding
2 | CC(=O)N[C@H]1C(O)O[C@H](CO)[C@@H](O)[C@@H]1O (stereo partly drawn) [N-acetyl-glucosamine] | mannose, GlcNAc, and GalNAc significantly suppressed THP-TNF-α binding
3 | CO[C@H]1O[C@H](CO)[C@@H](O)[C@H](O)[C@@H]1O [α-methyl-D-mannoside] | mannose, GlcNAc, and GalNAc significantly suppressed THP-TNF-α binding
